What was measured:
[1] = Population pharmacokinetic model of oral roscovitine and metabolite M3, first dose, ROSCO-CF trial
CYP2B6 = system: CYP2B6; design: method as in PMID 18048486; conditions: cited from earlier work
CYP3A4 = system: CYP3A4; design: method as in PMID 18048486; conditions: cited from earlier work
[2] = system: P-glycoprotein 1 (P-gp, MDR1 or ABCB1) efflux pump; design: method as in PMID 20699410; conditions: cited from earlier work
[3] = population estimate, adult CF patients, oral
[4] = population estimate, covariate effect

Compound | ke: elimination rate of the metabolite ([1]; population estimate) | substrate for CYP2B6 (CYP2B6) | substrate for CYP3A4 (CYP3A4) | rate of absorption in patients treated with PPIs ([1]; oral roscovitine, adult CF patients) | CV1: coefficient of variation of first inverse Gaussian absorption function ([1]; population estimate) | CV2: coefficient of variation of second inverse Gaussian absorption function ([1]; population estimate) | k12: distribution rate to the peripheral compartment ([1]; population estimate) | k21: distribution rate from the peripheral compartment ([1]; population estimate) | kmet: systemic conversion rate of roscovitine in its carboxylate metabolite M3 ([1]; population estimate) | T1max: time at which the first inverse Gaussian absorption function reaches its maximum [1, 3] | dT2max (T2max = T1max + dT2max), inverse Gaussian absorption parameter [1, 3] | π1: weight associated with the first input fraction [1, 3] | D50: oral dose of roscovitine for which Fdose is 50% ([1]; population estimate, adult CF patients, oral 200-800 mg) | β (PPI = 1) on T1max: coefficient for modification of T1max in patients taking PPI [1, 4] | β height (cm) on V: coefficient for the effect of height on V/F [1, 4] | V/F: apparent volume of the central compartment after oral administration ([1]; population estimate, single parameter common to roscovitine and M3, reference height 170 cm) | substrate for P-glycoprotein 1 efflux pump [2]
CC[C@@H](Nc1nc(NCc2ccccc2)c2ncn(C(C)C)c2n1)C(=O)O [M3] | 2.58 h⁻¹ | – | – | – | – | – | – | – | – | – | – | – | – | – | – | – | –
CC[C@H](CO)Nc1nc(NCc2ccccc2)c2ncn(C(C)C)c2n1 [roscovitine, (R)-roscovitine] | – | substrate | substrate | slower rate of absorption | 0.542 | 0.354 | 1.82 h⁻¹ | 0.768 h⁻¹ | 2.07 h⁻¹ | 0.676 h | 1.04 h | 0.285 | 1190 µmol | 0.680 | 6.47 | 62.2 L | substrate
